Converted amounts (≈) assume the structure as drawn.
Legend:
[1] = tested on: HepG2; assay: Antiproliferative activity against human HepG2 cells assessed as reduction in cell proliferation; type: functional, cell-based
[2] = tested on: MCF7; assay: Antiproliferative activity against human MCF7 cells assessed as reduction in cell proliferation; type: functional, cell-based
[3] = Antiproliferative activity against human […] cells assessed as reduction in cell proliferation; type: functional, cell-based
[4] = tested on: HCT-116; assay: Anticancer activity against human HCT-116 cells assessed as reduction in cell viability incubated for 24 hrs by MTT colorimetric assay; type: functional, cell-based; conditions: HCT-116, 24 h
[5] = tested on: HepG2; assay: Anticancer activity against human HepG2 cells assessed as reduction in cell viability incubated for 24 hrs by MTT colorimetric assay; type: functional, cell-based; conditions: HepG2, 24 h
[6] = tested on: MCF7; assay: Anticancer activity against human MCF7 cells assessed as reduction in cell viability incubated for 24 hrs by MTT colorimetric assay; type: functional, cell-based; conditions: MCF7, 24 h
[7] = tested on: Bacillus subtilis; assay: Antibacterial activity against Bacillus subtilis assessed as diameter of inhibition zone at 100 ug/ml by disc diffusion method; type: functional; conditions: read-out: DIZ
[8] = tested on: Klebsiella pneumoniae; assay: Antibacterial activity against Klebsiella pneumoniae assessed as diameter of inhibition zone at 100 ug/ml by disc diffusion method; type: functional; conditions: read-out: DIZ
[9] = tested on: Escherichia coli; assay: Antibacterial activity against Escherichia coli assessed as diameter of inhibition zone at 100 ug/ml by disc diffusion method; type: functional; conditions: read-out: DIZ
[10] = tested on: Mycobacterium tuberculosis; assay: Antitubercular activity against Mycobacterium tuberculosis H37Rv assessed as bacterial growth inhibition incubated for 24 hrs by MABA assay; type: functional
[11] = tested on: Staphylococcus aureus; assay: Antibacterial activity against Staphylococcus aureus assessed as inhibition of bacterial growth; type: functional
[12] = tested on: Salmonella typhimurium; assay: Antibacterial activity against Salmonella typhimurium MTCC 98 assessed as bacterial growth inhibition by broth microdilution method; type: functional, Salmonella enterica subsp. enterica serovar Typhimurium; conditions: Salmonella enterica
[13] = tested on: Staphylococcus aureus; assay: Antibacterial activity against Staphylococcus aureus assessed as bacterial growth inhibition by broth microdilution method; type: functional
[14] = tested on: Escherichia coli; assay: Antibacterial activity against Escherichia coli assessed as bacterial growth inhibition by broth microdilution method; type: functional
[15] = tested on: Klebsiella pneumoniae; assay: Antibacterial activity against Klebsiella pneumoniae assessed as bacterial growth inhibition by broth microdilution method; type: functional
[16] = tested on: Pseudomonas aeruginosa; assay: Antibacterial activity against Pseudomonas aeruginosa assessed as bacterial growth inhibition by broth microdilution method; type: functional
[17] = tested on: Staphylococcus aureus; assay: Antibacterial activity against Staphylococcus aureus NCTC-7447 assessed as diameter of inhibition zone incubated for 24 hrs by disc diffusion method; type: functional
[18] = tested on: Bacillus cereus; assay: Antibacterial activity against Bacillus cereus ATCC-14579 assessed as diameter of inhibition zone incubated for 24 hrs by disc diffusion method; type: functional
[19] = tested on: Serratia marcescens; assay: Antibacterial activity against Serratia marcescens IMRU-70 assessed as diameter of inhibition zone incubated for 24 hrs by disc diffusion method; type: functional
[20] = tested on: Proteus mirabilis; assay: Antibacterial activity against Proteus mirabilis NTCC-289 assessed as diameter of inhibition zone incubated for 24 hrs by disc diffusion method; type: functional
[21] = tested on: Aspergillus ochraceus; assay: Antifungal activity against Aspergillus ochraceus AUCC-230 assessed as diameter of inhibition zone incubated for 24 hrs by disc diffusion method; type: functional
[22] = tested on: Penicillium chrysogenum; assay: Antifungal activity against Penicillium chrysogenum AUCC-530 assessed as diameter of inhibition zone incubated for 24 hrs by disc diffusion method; type: functional
[23] = Antioxidant activity assessed as DPPH radical scavenging activity; type: functional
[24] = Antioxidant activity assessed as H2O2 radical scavenging activity; type: functional
[25] = Antioxidant activity assessed as NO radical scavenging activity; type: functional
[26] = target: Alpha-glucosidase (Saccharomyces cerevisiae S288c, UniProt P53341+P38158+P07265); assay: Inhibition of Saccharomyces cerevisiae alpha-glucosidase assessed as decrease in release of p-nitrophenol using pNPG as substrate incubated for 10 mins by spectroscopic analysis; type: protein assay
[27] = tested on: Clostridium tetani; assay: Antibacterial activity against Clostridium tetani MTCC 449 assessed as bacterial growth inhibition by broth microdilution method; type: functional
[28] = tested on: Aspergillus fumigatus; assay: Antifungal activity against Aspergillus fumigatus MTCC 227 assessed as fungal growth inhibition by broth microdilution method; type: functional
[29] = tested on: Mycobacterium tuberculosis; assay: Antitubercular activity against Mycobacterium tuberculosis H37Rv assessed as bacterial growth inhibition at 250 ug/ml; type: functional
[30] = tested on: Mycobacterium tuberculosis; assay: Antitubercular activity against Mycobacterium tuberculosis H37Rv assessed as bacterial growth inhibition at 100 ug/ml; type: functional
[31] = tested on: Plasmodium falciparum; assay: microbe, parasite or virus in culture
[32] = tested on: Staphylococcus aureus; assay: Antimicrobial activity against Staphylococcus aureus assessed as diameter of inhibition zone at 1.2 mg/ml incubated for 12 hrs by agar disk diffusion method; type: functional; conditions: read-out: DIZ
[33] = tested on: Staphylococcus aureus; assay: Antimicrobial activity against Staphylococcus aureus assessed as diameter of inhibition zone at 2.5 mg/ml incubated for 12 hrs by agar disk diffusion method; type: functional; conditions: read-out: DIZ
[34] = tested on: Staphylococcus aureus; assay: Antimicrobial activity against Staphylococcus aureus assessed as diameter of inhibition zone at 5.0 mg/ml incubated for 12 hrs by agar disk diffusion method; type: functional; conditions: read-out: DIZ
[35] = tested on: Escherichia coli; assay: Antimicrobial activity against Escherichia coli assessed as diameter of inhibition zone at 2.5 mg/ml incubated for 12 hrs by agar disk diffusion method; type: functional; conditions: read-out: DIZ
[36] = tested on: Escherichia coli; assay: Antimicrobial activity against Escherichia coli assessed as diameter of inhibition zone at 5.0 mg/ml incubated for 12 hrs by agar disk diffusion method; type: functional; conditions: read-out: DIZ
[37] = tested on: Pseudomonas aeruginosa; assay: Antimicrobial activity against Pseudomonas aeruginosa assessed as diameter of inhibition zone at 1.2 mg/ml incubated for 12 hrs by agar disk diffusion method; type: functional; conditions: read-out: DIZ
[38] = tested on: Pseudomonas aeruginosa; assay: Antimicrobial activity against Pseudomonas aeruginosa assessed as diameter of inhibition zone at 2.5 mg/ml incubated for 12 hrs by agar disk diffusion method; type: functional; conditions: read-out: DIZ
[39] = tested on: Pseudomonas aeruginosa; assay: Antimicrobial activity against Pseudomonas aeruginosa assessed as diameter of inhibition zone at 5.0 mg/ml incubated for 12 hrs by agar disk diffusion method; type: functional; conditions: read-out: DIZ
[40] = tested on: Bacillus cereus; assay: Antimicrobial activity against Bacillus cereus assessed as diameter of inhibition zone at 1.2 mg/ml incubated for 12 hrs by agar disk diffusion method; type: functional; conditions: read-out: DIZ
[41] = tested on: Bacillus cereus; assay: Antimicrobial activity against Bacillus cereus assessed as diameter of inhibition zone at 2.5 mg/ml incubated for 12 hrs by agar disk diffusion method; type: functional; conditions: read-out: DIZ
[42] = tested on: Bacillus cereus; assay: Antimicrobial activity against Bacillus cereus assessed as diameter of inhibition zone at 5.0 mg/ml incubated for 12 hrs by agar disk diffusion method; type: functional; conditions: read-out: DIZ
[43] = tested on: Aspergillus ochraceus; assay: Antifungal activity against Aspergillus ochraceus assessed as diameter of inhibition zone by disc diffusion method; type: functional
[44] = tested on: Penicillium chrysogenum; assay: Antifungal activity against Penicillium chrysogenum assessed as diameter of inhibition zone by disc diffusion method; type: functional
[45] = tested on: Serratia marcescens; assay: Antibacterial activity against Serratia marcescens assessed as diameter of inhibition zone by disc diffusion method; type: functional

Cc1ccc(S(=O)(=O)Nn2cnc3c(c2=N)C(c2cn(-c4ccccc4)nc2-c2ccccc2)c2c(ccc4ccccc24)O3)cc1 (centres undefined)
IC50 [1]: 10 µM
IC50 [2]: 9.29 µM
IC50 [3]: 4.9 µM

N#CC(C#N)=C1c2c(-c3ccccc3)n[nH]c2Oc2c1c(-c1ccccc1O)[nH]c1nc(=O)[nH]c(=O)c2-1
IC50 [4]: 18.5 µM
IC50 [5]: 21.9 µM
IC50 [6]: 22.6 µM

CCOC(=O)C1=C(C)Oc2nc(C)n(Cc3cn(-c4cccc(C(F)(F)F)c4)nn3)c(=O)c2C1c1ccc([N+](=O)[O-])cc1 (centres undefined)
zone of inhibition at 100 µg/mL [7]: 12 mm
zone of inhibition at 100 µg/mL [8]: 15.5 mm
zone of inhibition at 100 µg/mL [9]: 14 mm

O=C(O)c1cn(C2CC2)c2cc(N3CCNCC3)c(F)cc2c1=O [CIPROFLOXACIN]
MIC [10]: 3.12 µg/mL (≈ 9.43 µM)
MIC [11]: 50 µg/mL (≈ 151 µM)
MIC [12]: 25 µg/mL (≈ 75.4 µM)
MIC [13]: 3.12 µg/mL (≈ 9.42 µM)
MIC [14]: 3.12 µg/mL (≈ 9.42 µM)
MIC [15]: 3.12 µg/mL (≈ 9.42 µM)
MIC [16]: 3.12 µg/mL (≈ 9.42 µM)

N#CCc1nc2c3c(ncn2n1)Oc1c(c(=O)oc2ccccc12)C3c1ccc(Cl)cc1 (centres undefined)
diameter of the inhibition zone (DIZ) [17]: 18 mm
diameter of the inhibition zone (DIZ) [18]: 19 mm
diameter of the inhibition zone (DIZ) [19]: 21 mm
diameter of the inhibition zone (DIZ) [20]: 21 mm
diameter of the inhibition zone (DIZ) [21]: 15 mm
diameter of the inhibition zone (DIZ) [22]: 13 mm

NNc1ncnc2c1C(c1cn(-c3ccccc3)nc1-c1ccccc1)c1c(ccc3ccccc13)O2 (centres undefined)
IC50 [1]: 9.26 µM
IC50 [2]: 9.89 µM
IC50 [3]: 4.9 µM

Nc1ncnc2c1C(c1ccc([N+](=O)[O-])cc1)c1ccc(O)cc1O2 (centres undefined)
IC50 [23]: 34.34 µg/mL (≈ 102 µM)
IC50 [24]: 53.54 µg/mL (≈ 159 µM)
IC50 [25]: 50.32 µg/mL (≈ 150 µM)

N#CC(C#N)=C1c2c(-c3ccccc3)n[nH]c2Oc2[nH]c(=O)nc(-c3ccccc3O)c21
IC50 [4]: 30.1 µM
IC50 [5]: 30.1 µM
IC50 [6]: 30.1 µM

O=c1oc2ccccc2c2c1C(c1ccc(Cl)cc1)c1c(ncn3nc(CCl)nc13)O2 (centres undefined)
diameter of the inhibition zone (DIZ) [17]: 18 mm
diameter of the inhibition zone (DIZ) [18]: 19 mm
diameter of the inhibition zone (DIZ) [19]: 21 mm
diameter of the inhibition zone (DIZ) [20]: 21 mm
diameter of the inhibition zone (DIZ) [21]: 15 mm
diameter of the inhibition zone (DIZ) [22]: 13 mm

COc1cc(/C=C/C(=O)C2=C(/C=C/c3ccc(O)c(OC)c3)Oc3[nH]c(=O)[nH]c(=O)c3C2c2c[nH]c3ccccc23)ccc1O (centres undefined)
IC50 [26]: 35.3 µM

COc1cc(/C=C/C(=O)CC(=O)/C=C/c2ccc(O)c(OC)c2)ccc1O [CURCUMIN]
IC50 [26]: 44.8 µM

CCOC(=O)C1=C(N)Oc2[nH]c(=S)[nH]c(=O)c2C1c1c(C)nn(-c2ccccc2)c1-n1ccnc1 (centres undefined)
MIC [27]: 100 µg/mL (≈ 203 µM)
MIC [28]: 200 µg/mL (≈ 407 µM)
inhibition at 250 µg/mL [29]: 37%
inhibition at 100 µg/mL [30]: 30%
IC50 [31]: 0.97 µg/mL (≈ 1.97 µM)

N#CC1=C(N)Oc2[nH]c(=O)[nH]c(=O)c2C1c1ccncc1 (centres undefined)
zone of inhibition at 1200 µg/mL [32]: 8 mm
zone of inhibition at 2500 µg/mL [33]: 10 mm
zone of inhibition at 5000 µg/mL [34]: 14 mm
zone of inhibition at 2500 µg/mL [35]: 13 mm
zone of inhibition at 5000 µg/mL [36]: 17 mm
zone of inhibition at 1200 µg/mL [37]: 12 mm
zone of inhibition at 2500 µg/mL [38]: 16 mm
zone of inhibition at 5000 µg/mL [39]: 19 mm
zone of inhibition at 1200 µg/mL [40]: 10 mm
zone of inhibition at 2500 µg/mL [41]: 15 mm
zone of inhibition at 5000 µg/mL [42]: 19 mm

Cc1nc2c3c(ncn2n1)Oc1ccc2cc(Br)ccc2c1C3
diameter of the inhibition zone (DIZ) [43]: 17 mm
diameter of the inhibition zone (DIZ) [44]: 13 mm
diameter of the inhibition zone (DIZ) [45]: 23 mm

Nc1ncnc2c1C(c1ccc(Cl)cc1)c1ccc(O)cc1O2 (centres undefined)
IC50 [23]: 36.82 µg/mL (≈ 113 µM)
IC50 [24]: 53.54 µg/mL (≈ 164 µM)
IC50 [25]: 50.32 µg/mL (≈ 154 µM)

Nc1ncnc2c1C(c1ccccc1O)c1ccc(O)cc1O2 (centres undefined)
IC50 [23]: 36.82 µg/mL (≈ 120 µM)
IC50 [24]: 53.54 µg/mL (≈ 174 µM)
IC50 [25]: 50.32 µg/mL (≈ 164 µM)

Source: ChEMBL document CHEMBL5241112, “Insights into the recent progress in the medicinal chemistry of pyranopyrimidine analogs” (RSC Med Chem, 2022)
